One data set is described as follows: physchem. Conditions: solubility of paracetamol. How it is done:
The solubility of paracetamol in various solvents, such as glycofurol, PEG, ethanol, and propylene glycol were determined by us. […] The challenge lies in tailoring the appropriate solvent system to provide injectables containing paracetamol in 166 mg/ml to 250 mg/ml so that the therapeutic dose of paracetamol (500 mg) can be delivered in 2 to 3 ml without compromising in viscosity of these injectables.

Data set [1] can be described thus: Viscosity of paracetamol injectable solutions. It counts as physicochemical. As to conditions: solution in glycofurol at concentration of 205 mg/ml. How it is done: The solitary prior art in which the solution of paracetamol ranging from 60 mg/ml (6% w/v) to 150 mg/ml (15% w/v) have been prepared in glycofurol:ethanol:water (about 44:10:46 or about 4:1:4) and glycofurol: water (48:52 or about 1:1). […] 5 CPS and 14.8 CPS respectively. It is to be noted that the concentrations of the solutions reported in the said prior art is between 60 mg/ml to 150 mg/ml.

Converted amounts (≈) assume the structure as drawn.

For `CC(=O)Nc1ccc(O)cc1` [paracetamol, p-acetylaminophenol], the solubility in “physchem” (organic solvent or mixture) is approximately 205 mg/mL (≈ 1360 mM); in “physchem” (water), approximately 14 mg/mL (≈ 92.6 mM). Besides, the “viscosity of the paracetamol solution” value in data set [1] was “about 57 CPS”.

Broadly, the solubility is the concentration that dissolves in the medium under given conditions.

These data come from patent publication US9616128B2, “Pharmaceutical compositions comprising paracetamol and process for preparing the same” (Troikaa Pharmaceuticals Ltd, priority 2010, dated 2017).
